This note sets out measurements from patent US20080153794A1, “Medicaments and methods for wound healing” (RENOVO LIMITED, priority 2006, published 2008).

Experiment [1] relates to full thickness excisional wounds (punch biopsies). Description: Rat full thickness excisional wound model (study 3): re-epithelialisation at test concentrations, injection 20 minutes before wounding. Type of experiment: in vivo, adult male Sprague-Dawley rats. Conditions: intradermal 20 minutes before wounding, day 3, five rats. The text has this: Animals were killed, and their wounds harvested, three days after wounding. The wounds were excised and treated for histology. […] All histological assessments of early wound healing events were made using preserved 5 micron-thickness wound sections taken from the widest part of each excised biopsy site. Sections were stained with Haematoxylin and Eosin to aid visualisation of structural features, and measurements made using image analysis software. The distance traveled by the epithelium is derived from two histological measurements: the freehand total wound diameter and the freehand non-epithelialised wound diameter. The non-epithelialised diameter is subtracted from the total wound diameter, to determine the distance which the new epithelium has covered since the time of wounding. Percentage re-epithelialisation for the new epithelium was calculated as a proportion of the total wound diameter. The average percentage re-epithelialisation value was calculated from the wounds of the […] within each treatment group. […] 100 μl of the medicament to be tested was administered by intradermal injection at sites on the dorsal surface of experimental rats, 20 minutes prior to formation of a full thickness punch biopsy at the injected site. One injection and excisional wound was made per animal, and five adult male Sprague-Dawley rats used per treatment group. Acceleration of wound healing achieved using the test concentrations of the medicaments of the invention was investigated using the protocols set out under 1.1.4 above.

For the next experiment, the system named is partial thickness wounds. In words: Pig partial thickness wound healing model (model of split thickness skin graft donor sites). Type of experiment: in vivo, male Large White pigs. Conditions: 100 μl per cm^2 intradermal, five days after wounding, four pigs. The method, then: Test medicaments were administered by intradermal injection to provide 100 μl of medicament per cm^2 to sites on experimental pigs where wounds were to be formed. Thus a total volume of 625 μl of the test medicament was administered per wound site. After administration of the medicaments 2.5 cm by 2.5 cm (6.25 cm^2) partial thickness wounds were made using a 25 mm dermatome (Nouvag) at a depth setting of 0.55 mm. A single wound was treated per animal, and each treatment group comprised four male Large White pigs. Animals were killed, and their wounds harvested, five days after wounding. The wounds were excised and treated for histology. […] After being allowed fixed for 48 hours wounded tissue was bisected into four even sections. All bisected sections were processed to wax and embedded into individual wax blocks. Tissue was sectioned through to the end of the block where at every 250 μm, a single slide containing a 5 μm thick section was prepared. […] For each section, the freehand epithelialised and freehand non-epithelialised distances were measured using image analysis; freehand epithelialised distance as a proportion of the sum of the epithelialised and non-epithelialised distances was calculated to produce a percentage re-epithelialisation value. Average percentage re-epithelialisation values were calculated per wound and per treatment group.

For experiment [2], the system named is full thickness cutaneous excisional wounds (punch biopsies). In words: Human 3 mm punch biopsy wounds: re-epithelialisation. Type of experiment: in vivo, humans. The conditions noted are these: single 100 μl intradermal dose 10-30 minutes before wounding, day 3, 44 wounds. The method, then:
Medicaments of the invention were prepared using the constituents described above. […] 44 healthy subjects were recruited to the study, of whom, 40 were healthy males (aged 18-75 years) and 4 were post-menopausal females (aged 53-69 years). The average age of subjects recruited to this study was 42 years. The post-menopausal status of female subjects was confirmed by quantification of serum levels of oestradiol and follicle stimulating hormone (FSH). Serum levels of oestradiol were required to be […], and follicle stimulating hormone levels >31 IU/L. Each subject had four wounds treated with active drug, one corresponding to each of four concentrations of the medicaments produced. The test medicaments were each administered intradermally as a single dose at a volume of 100 μl (sufficient to treat 1 cm^2 of skin) per wound site (the upper, inner aspect of each arm), 10-30 minutes before wounding. Subjects received 3 mm punch biopsies at the sites where the medicaments had been administered. After wounding, all sites received moist wound healing dressings (Standard Care). Biopsy sites were excised, using a 5 mm punch biopsy, three days after wounding. […] Percentage re-epithelialisation for the new epithelium was calculated as a proportion of the total wound diameter. The average percentage re-epithelialisation value was calculated from the 44 wounds of each treatment group.

The mark [3] stands for this setting: 0.1 μg 17β-oestradiol/100 μl of medicament (0.0001% w/v).

For `C[C@]12CC[C@@H]3c4ccc(O)cc4CC[C@H]3[C@@H]1CC[C@@H]2O` [17β-oestradiol], the re-epithelialisation stood at 23.02% in experiment [1] (0.001 μg 17β-oestradiol/100 μl of medicament (0.000001% w/v)); 29.03% in experiment [1] (0.01 μg 17β-oestradiol/100 μl of medicament (0.00001% w/v)); 29.95% in experiment [1] (setting [3]); 14.63% in experiment [1] (1 μg 17β-oestradiol/100 μl of medicament (0.001% w/v)); 10.30% in experiment [1] (10 μg 17β-oestradiol/100 μl of medicament (0.01% w/v)); 98.15% with partial thickness wounds (0.1 μg 17β-oestradiol/100 μl of medicament). Besides, the re-epithelialisation with partial thickness wounds (0.2 μg 17β-oestradiol/100 μl of medicament) worked out at 98.56%. Further, the “acceleration of re-epithelialisation (in words)” value in experiment [2] (setting [3]) and in experiment [2] (0.2 μg 17β-oestradiol/100 μl of medicament (0.0002% w/v)) was “particularly preferable ability to induce acceleration of re-epithelialisation” throughout.
